As usually defined, the IC50 is the point on the concentration scale where inhibition reaches its midpoint. Read a low IC50 as inhibition by little substance.

These results are taken from PMC7126545 (Bioorganic & Medicinal Chemistry Letters, 2016).

In series [1] the test system is L1210, CEM and HeLa cells. To be noted: for cytostatic activity (in words): tumour cell lines.
Series [2] can be described thus: in vitro.
Series [3] is described as follows: in vitro. To be noted: mouse (L1210), human (CEM, HeLa).

For `C#C[C@@]1(O)[C@@H](CO)O[C@@H](n2cnc3c(N)ncnc32)[C@@H]1O` [Compound 1, 3′-C-ethynyladenosine, reference compound], the “cytostatic activity (in words)” value in series [1] is “potent cytostatic activity”. Take `C#C[C@@]1(O)[C@@H](CO)O[C@@H](n2cnc3c(N)nc(Cl)nc32)[C@@H]1O` [Compound 7]: the “cytostatic activity (in words)” value in series [1] was “did not show any cytostatic activity”. For the molecule `C#C[C@@]1(O)[C@@H](CO)O[C@@H](n2cnc3c(NCc4cccc(Cl)c4)nc(Cl)nc32)[C@@H]1O` [Compound 10], in series [1] (cytostatic potency relative to EAdo in the three cell lines), the “times less potent than EAdo” value was “at least 30”. The same molecule returned a CC50 in “in vitro [2]” of 34.5 µM. In addition, the IC50 in “in vitro [3]” was in the range of 22 to 50 µM.
